In patent US7635685B2 (priority 2003, dated 2009):
In brackets after ≈: the same amount, converted by molar mass. Several values for one entry are separate records, joined by “and”; a condition that tells them apart may be missing. Equal values may be shown once. Read-outs that look alike come from different tables or passages of the source.

Experiments:
[1] = biological target: 27-mer 16S A site RNA construct (AS-wt); format: binding
[2] = test system: B. anthracis (Sterne strain); experiment: microbe, parasite or virus in culture; format: cell-based, Bacillus anthracis
[3] = test system: E. coli strains; experiment: microbe, parasite or virus in culture; format: cell-based
[4] = test system: E. coli XL1(pET9d); experiment: microbe, parasite or virus in culture; format: cell-based
[5] = test system: Pseudomonas aeruginosa (ATCC 27853); experiment: microbe, parasite or virus in culture; format: cell-based
[6] = test system: Salmonella virchow (SV49); experiment: microbe, parasite or virus in culture; format: cell-based
[7] = test system: Staphylococcus epidermidis; experiment: microbe, parasite or virus in culture; format: cell-based
[8] = test system: Bacillus subtilis; experiment: microbe, parasite or virus in culture; format: cell-based
[9] = in vivo; cited from earlier work
[10] = test system: adenylyl(3′-5′)-adenosine (ApA); conditions: cited from earlier work

NCC1O[C@H](OC2C(O)[C@H](OC3C(O)[C@H](N)CC(N)[C@H]3O[C@H]3OC(CN)[C@@H](O)C(O)C3N)O[C@@H]2CO[C@@H]2OC(CO)[C@@H](O)C(O)C2O)C(N)C(O)[C@@H]1O (stereo partly shown) [Compound XII]
Kd ([1]; read-out: Kd): 1100 ± 200 nM | MIC ([2]; Bacillus anthracis, 18 h): 8 µg/mL (≈ 10.3 µM)

NCC1O[C@H](O[C@@H]2C(N)C[C@@H](N)C(O)[C@H]2O[C@@H]2O[C@H](CS[C@@H]3O[C@H](CO)[C@H](O)C3O)[C@H](O[C@H]3O[C@@H](CN)[C@@H](O)C(O)C3N)C2O)C(N)[C@@H](O)[C@@H]1O (stereo partly shown) [Compound XI]
Kd ([1]; read-out: Kd): 1000 ± 200 nM | MIC ([2]; Bacillus anthracis, 18 h): 2 µg/mL (≈ 2.62 µM) | MIC ([3]; Escherichia coli): 30 to 40 µg/mL (≈ 39.3 to 52.4 µM) | MIC ([3]; Escherichia coli, ATCC25922): 25 to 40 µg/mL (≈ 32.8 to 52.4 µM) | MIC ([4]; Escherichia coli): > 200 µg/mL | MIC ([5]; Pseudomonas aeruginosa, ATCC27853): 200 to 400 µg/mL (≈ 262 to 524 µM) | MIC ([6]; Salmonella enterica): > 250 µg/mL | MIC ([7]; Staphylococcus epidermidis, ATCC12228): 1.5 to 3 µg/mL (≈ 1.97 to 3.93 µM) | MIC ([8]; Bacillus subtilis, ATCC6633): 1 to 2.5 µg/mL (≈ 1.31 to 3.28 µM)

NC[C@H]1O[C@H](O[C@H]2[C@H](O)[C@@H](O[C@H]3O[C@H](CO)[C@@H](O)[C@H](N)[C@H]3O)[C@H](N)C[C@@H]2N)[C@H](O)[C@@H](O)[C@@H]1O [KAN]
MIC [4]: 260 to 270 µg/mL | MIC [5]: 400 to 500 µg/mL | MIC [6]: 500 to 570 µg/mL

NC[C@@H]1O[C@H](O[C@H]2[C@@H](O)[C@H](O[C@@H]3[C@@H](O)[C@H](N)C[C@H](N)[C@H]3O[C@H]3O[C@H](CO)[C@@H](O)C[C@H]3N)O[C@@H]2CO)[C@H](N)[C@@H](O)[C@@H]1O[C@H]1O[C@H](CO)[C@@H](O)[C@H](O)[C@@H]1O [lividomycin]
LD50 [9]: 280 mg/kg

NC[C@@H]1O[C@H](O[C@H]2[C@@H](O)[C@H](O[C@@H]3[C@@H](O)[C@H](N)C[C@H](N)[C@H]3O[C@H]3O[C@H](CO)[C@@H](O)[C@H](O)[C@H]3N)O[C@@H]2CO)[C@H](N)[C@@H](O)[C@@H]1O [paromomycin]
LD50 [9]: 160 mg/kg

NC[C@H]1O[C@H](O[C@H]2[C@H](O[C@@H]3O[C@H](CO)[C@@H](O)[C@H]3O)[C@@H](O)[C@H](N)C[C@@H]2N)[C@H](N)[C@@H](O)[C@@H]1O [ribostamycin]
LD50 [9]: 260 mg/kg

neomycin B
Kd ([1]; read-out: binding constant Kd to 16S A site RNA): 300 nM | MIC [2]: 0.25 µg/mL | MIC [3]: 4 to 5.5 µg/mL and 8 to 10 µg/mL | MIC [4]: 50 to 60 µg/mL | MIC [5]: 55 to 60 µg/mL | MIC [6]: 200 to 250 µg/mL | MIC [7]: 0.3 to 0.4 µg/mL | MIC [8]: 0.8 to 0.9 µg/mL | first-order rate constants lower than those reported for natural ribozymes [10]: over 1000 fold | hydrolysis of ApA faster than 1,3-propanediamine [10]: 3 fold | LD50 [9]: 24 mg/kg
